According to patent US12234504B1 (priority 2023, dated 2025):
Positions of bridges follow the written chain, without caps; N, C: chain ends. Non-standard residues stand in square brackets, D forms with d. Residues, ends and D or L forms follow the SMILES beside them. *: point of attachment. Ileψ(thiazoline)Cys = CC[C@H](C)[C@H](N)C1=N[C@H](C(=O)*)CS1; dOrn = NCCC[C@@H](N)C(=O)O

Experiments:
E. coli DNA gyrase [1] = biological target: T1, E. coli DNA gyrase (Escherichia coli, UniProt P0AES4+P0AES6); format: biochemical; conditions: 50 μM compound; for Fluorescent Intensity #1 / Fluorescent Intensity #2 / Mean Fluorescent Intensity: 50-compound library screen; for Fluorescent Intensity #1: duplicate 1; for Fluorescent Intensity #1 / Fluorescent Intensity #2: low fluorescence = gyrase poison; for Fluorescent Intensity #2: duplicate 2; for Mean Fluorescent Intensity: mean of duplicates; for hit in HTS pilot screen (inhibition ≥50% cutoff): duplicate; for fluorescence intensity compared with negative controls (in words): HTS screen
T1 construct: made in house
Experimental: FIGS. 6A-6B. High throughput screening (HTS) pilot screen of the 50-compound library for E. coli DNA gyrase poisoning inhibitors in duplicate. A final compound concentration of 50 μM was used. […] (A) Fluorescence raw data.
A Fluorescence-Based, T5 Exonuclease-Amplified DNA Cleavage Assay to Identify Poisoning Inhibitors for E. coli DNA Gyrase.
For negative control experiments, 1% DMSO was used. […] 0.5 mg/mL of proteinase K was then added to the reaction mixtures to digest DNA gyrase at 50° C. for 30 min. After the DNA samples were diluted 100 times using 1×NEB buffer 4 (20 mM Tris-Acetate, pH 7.9, 50 mM KAc, 10 mM Mg(AC)2, and 1 mM DTT), 30 μL of each DNA sample was transfer to a well of a 384-well plate. 200 nM of T5 exonuclease was used to digest DNA fragment for 2 hours at 37° C. 1×SYBR™ Green was added to all DNA samples. Fluorescence intensity was measured using a Biotek microplate reader with excitation wavelength of 497 nm and emission wavelength of 525 nm.
Z′ was calculated by the following equation: […]

T5 exonuclease = biological target: T2, T5 exonuclease (Escherichia phage T5, UniProt P06229); assay: Detergent inhibition of T5 exonuclease on lambda DNA HindIII digest; format: biochemical; set-up: detergent concentration that inhibits T5 exonuclease: dose or concentration left out as unconfirmed
T2 construct: made in house
Experimental: FIGS. 2A-2F. Agarose gel-based DNA gyrase cleavage assays were performed as described in Materials and Methods. […] Lane 7 is Lambda DNA HindIII digest as the molecular standard. […] (C) The appearance and disappearance of the gyrase-mediated linear band of plasmid pBR322 is dependent of the E. coli DNA gyrase concentration. High concentrations of E. coli DNA gyrase also cause disappearance of the supercoiled plasmid in the gyrase-mediated DNA cleavage assays. […] 500 ng of a DNA HindIII digest was digested using 50 nM of T5E in 20 μL of 1× gyrase-mediated DNA cleavage buffer (20 mM Tris-HCl pH 8, 50 mM KAc, 10 mM MgCl2, 2 mM DTT, 1 mM ATP, 0.1 mg/mL BSA) for 30 min in the presence of different concentrations of SDS. […] contained 0.000625, 0.00125, 0.0025, 0.005, 0.0125, and 0.025%, respectively. (E) Effects of sarkosyl on T5 exonuclease (T5E). 500 ng of a DNA HindIII digest was digested using 50 nM of T5E in 20 μL of 1× gyrase-mediated DNA cleavage buffer for 30 min in the presence of different concentrations of sarkosyl. Lanes 3 to 10 contained 0.005, 0.0125, 0.015, 0.02, 0.025, 0.05, 0.125, and 0.25%, respectively. (F) 50 nM of T5 exonuclease completely digested 500 ng of a DNA HindIII digest in 1× gyrase-mediated DNA cleavage buffer in the presence of 0.00125%. Lanes 1-7 contained 0, 5, 10, 20, 30, 40, and 50 nM of T5 exonuclease, respectively.
FIG. 3. […]

E. coli DNA gyrase [2] = biological target: T1, E. coli DNA gyrase; format: biochemical; conditions: for fluorescence intensity of the DNA samples (in words): validation with 10 antibiotics, FIG. 5A; for effect on SYBR Green fluorescence intensity (in words): 20 μM compound, FIG. 7A
E. coli DNA gyrase [3] = biological target: T1, E. coli DNA gyrase; assay: Agarose gel-based DNA gyrase-mediated DNA cleavage assay; format: biochemical; conditions: FIG. 7B
Experimental: FIGS. 2A-2F. Agarose gel-based DNA gyrase cleavage assays were performed as described in Materials and Methods. […] Lane 7 is Lambda DNA HindIII digest as the molecular standard. […] 500 ng of a DNA HindIII digest was digested using 50 nM of T5E in 20 μL of 1× gyrase-mediated DNA cleavage buffer (20 mM Tris-HCl pH 8, 50 mM KAc, 10 mM MgCl2, 2 mM DTT, 1 mM ATP, 0.1 mg/mL BSA) for 30 min in the presence of different concentrations of SDS. […] (E) Effects of sarkosyl on T5 exonuclease (T5E). 500 ng of a DNA HindIII digest was digested using 50 nM of T5E in 20 μL of 1× gyrase-mediated DNA cleavage buffer for 30 min in the presence of different concentrations of sarkosyl. […] Lanes 1-7 contained 0, 5, 10, 20, 30, 40, and 50 nM of T5 exonuclease, respectively.
DNA Gyrase and Human DNA Topoisomerase IIα Mediated DNA Cleavage Assay.
250 ng of relaxed plasmid pBR322 and 20 nM of E. coli DNA gyrase or human DNA topoisomerase IIα were mixed and incubated in 1×gyrase-mediated DNA cleavage buffer (20 mM Tris-HCl pH 8, 50 mM KAc, 10 mM MgCl2, 2 mM DTT, 1 mM ATP, 0.1 mg/mL BSA) at 37° C. for 15 minutes in the presence of an inhibitor or compound. After the incubation, 0.2% SDS and 0.1 mg/ml proteinase K were added to the reaction mixtures to trap the topoisomerase-inhibitor-DNA complex and digest the topoisomerase, respectively, by incubating for an additional 30 min at 37° C. DNA samples were analyzed in 1% agarose gel containing […] ethidium bromide in 1′TAE buffer and photographed under UV light. […] Etoposide was used as a positive control for human DNA topoisomerase IIα-mediated DNA cleavage assays.

E. coli DNA gyrase [4] = biological target: T1, E. coli DNA gyrase; conditions: read-out: IC50 against E. coli DNA gyrase; cited from earlier work

T1 sequence (P0AES4 whole entry, one chain of several): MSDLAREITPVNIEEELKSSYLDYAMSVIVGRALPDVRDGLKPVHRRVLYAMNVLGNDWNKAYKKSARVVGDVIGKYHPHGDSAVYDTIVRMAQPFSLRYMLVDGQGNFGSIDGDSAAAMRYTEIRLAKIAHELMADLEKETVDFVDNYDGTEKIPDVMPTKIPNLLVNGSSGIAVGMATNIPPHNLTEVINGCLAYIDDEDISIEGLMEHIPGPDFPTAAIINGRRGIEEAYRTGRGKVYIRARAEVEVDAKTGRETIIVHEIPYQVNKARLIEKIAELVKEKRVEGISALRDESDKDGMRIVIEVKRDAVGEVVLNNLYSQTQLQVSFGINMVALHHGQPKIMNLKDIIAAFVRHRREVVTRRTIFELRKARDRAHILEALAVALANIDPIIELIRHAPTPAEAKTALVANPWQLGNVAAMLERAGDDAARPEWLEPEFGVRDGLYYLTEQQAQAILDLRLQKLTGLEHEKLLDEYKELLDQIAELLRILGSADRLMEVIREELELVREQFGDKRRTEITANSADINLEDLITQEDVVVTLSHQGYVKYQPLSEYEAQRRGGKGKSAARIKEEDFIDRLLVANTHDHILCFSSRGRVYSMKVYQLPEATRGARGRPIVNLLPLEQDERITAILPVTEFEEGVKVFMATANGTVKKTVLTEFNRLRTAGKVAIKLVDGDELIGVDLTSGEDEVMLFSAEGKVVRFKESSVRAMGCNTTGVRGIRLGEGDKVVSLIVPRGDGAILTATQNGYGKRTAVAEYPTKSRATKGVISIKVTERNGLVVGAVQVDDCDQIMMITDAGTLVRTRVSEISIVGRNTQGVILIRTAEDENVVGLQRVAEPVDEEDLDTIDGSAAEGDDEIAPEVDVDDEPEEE
T2 sequence (P06229 whole entry): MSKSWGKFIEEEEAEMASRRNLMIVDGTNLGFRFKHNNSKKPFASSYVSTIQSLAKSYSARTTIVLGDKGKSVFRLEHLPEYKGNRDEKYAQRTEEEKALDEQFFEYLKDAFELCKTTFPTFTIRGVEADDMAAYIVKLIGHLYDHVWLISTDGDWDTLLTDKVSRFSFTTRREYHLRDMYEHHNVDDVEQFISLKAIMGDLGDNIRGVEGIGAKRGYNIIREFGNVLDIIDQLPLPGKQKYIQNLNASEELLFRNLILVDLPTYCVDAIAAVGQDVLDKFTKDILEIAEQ

O=C[C@H](O)[C@@H](O)[C@@H](O)[C@H](O)CO [D-galactose]
Fluorescent Intensity #1 (E. coli DNA gyrase [1]): 4111
Fluorescent Intensity #2 (E. coli DNA gyrase [1]): 6277
Mean Fluorescent Intensity (E. coli DNA gyrase [1]): 5194

O=C[C@H](O)[C@@H](O)[C@H](O)[C@H](O)CO [D-glucose]
Fluorescent Intensity #1 (E. coli DNA gyrase [1]): 4444
Fluorescent Intensity #2 (E. coli DNA gyrase [1]): 5984
Mean Fluorescent Intensity (E. coli DNA gyrase [1]): 5214

O=C[C@H](O)[C@@H](O)[C@@H](O)CO [L-arabinose]
Fluorescent Intensity #1 (E. coli DNA gyrase [1]): 4824
Fluorescent Intensity #2 (E. coli DNA gyrase [1]): 7032
Mean Fluorescent Intensity (E. coli DNA gyrase [1]): 5928

CCCCCCCCCCCCOS(=O)(=O)[O-].[Na+] [SDS, sodium dodecyl sulfate]
effect on T5 exonuclease activity (in words) (T5 exonuclease; 50 nM T5E, FIG. 2D/2E, SDS low concentrations, sarkosyl e.g. 0.015%): completely inhibited T5 exonuclease activity
detergent concentration that inhibits T5 exonuclease (T5 exonuclease; FIG. 3): ≥ 0.05%

CC1(C)S[C@@H]2[C@H](NC(=O)[C@H](N)c3ccccc3)C(=O)N2[C@H]1C(=O)O [ampicillin]
fluorescence intensity of the DNA samples (in words) (E. coli DNA gyrase [2]): high

CC[C@H](C)[C@H](N)C1=N[C@H](C(=O)N[C@@H](CC(C)C)C(=O)N[C@H](CCC(=O)O)C(=O)N[C@H](C(=O)N[C@H]2CCCCNC(=O)[C@H](CC(N)=O)NC(=O)[C@@H](CC(=O)O)NC(=O)[C@H](Cc3cnc[nH]3)NC(=O)[C@@H](Cc3ccccc3)NC(=O)[C@H]([C@@H](C)CC)NC(=O)[C@@H](CCCN)NC2=O)[C@@H](C)CC)CS1 [bacitracin] ({Ileψ(thiazoline)Cys}-L[dE]IK[dOrn]I[dF]H[dD]N; lactam 4-C)
Fluorescent Intensity #1 (E. coli DNA gyrase [1]): 7743
Fluorescent Intensity #2 (E. coli DNA gyrase [1]): 6533
Mean Fluorescent Intensity (E. coli DNA gyrase [1]): 7138

CCN(CC)CCCC(C)Nc1ccnc2cc(Cl)ccc12 (stereo not shown) [chloroquine]
Fluorescent Intensity #2 (E. coli DNA gyrase [1]): 8002

COc1cccc2c1C(=O)c1c(O)c3c(c(O)c1C2=O)C[C@@](O)(C(=O)CO)C[C@@H]3O[C@H]1C[C@H](N)[C@H](O)[C@H](C)O1 [doxorubicin]
hit in HTS pilot screen (inhibition ≥50% cutoff) (E. coli DNA gyrase [1]): hits and false positive
gyrase-mediated DNA cleavage / gyrase poisoning (in words) (E. coli DNA gyrase [3]): did not cause gyrase-mediated DNA cleavage
effect on SYBR Green fluorescence intensity (in words) (E. coli DNA gyrase [2]): quenched

CS[C@H]1SC[C@H]2C(=O)N(C)[C@@H](C(C)C)C(=O)OC[C@@H](NC(=O)c3cnc4ccccc4n3)C(=O)N[C@@H](C)C(=O)N(C)[C@@H]1C(=O)N(C)[C@@H](C(C)C)C(=O)OC[C@@H](NC(=O)c1cnc3ccccc3n1)C(=O)N[C@@H](C)C(=O)N2C [echinomycin]
fluorescence intensity compared with negative controls (in words) (E. coli DNA gyrase [1]): significant low fluorescence signals
gyrase-mediated DNA cleavage / gyrase poisoning (in words) (E. coli DNA gyrase [3]): do not possess gyrase poisoning properties
effect on SYBR Green fluorescence intensity (in words) (E. coli DNA gyrase [2]): did not reduce the fluorescence intensity

CCN1CCN(c2cc3c(cc2F)c(=O)c(C(=O)O)cn3C2CC2)CC1 [enrofloxacin]
hit in HTS pilot screen (inhibition ≥50% cutoff) (E. coli DNA gyrase [1]): hits

CCOc1ccc2nc3cc(N)ccc3c(N)c2c1 [etharcridine]
fluorescence intensity compared with negative controls (in words) (E. coli DNA gyrase [1]): significant low fluorescence signals
gyrase-mediated DNA cleavage / gyrase poisoning (in words) (E. coli DNA gyrase [3]): do not possess gyrase poisoning properties
effect on SYBR Green fluorescence intensity (in words) (E. coli DNA gyrase [2]): did not reduce the fluorescence intensity

CCn1cc(C(=O)O)c(=O)c2cc(F)c(N3CCNC(C)C3)c(F)c21 (stereo not shown) [lomefloxacin]
hit in HTS pilot screen (inhibition ≥50% cutoff) (E. coli DNA gyrase [1]): hits

CCn1cc(C(=O)O)c(=O)c2ccc(C)nc21 [nalidixic acid]
fluorescence intensity compared with negative controls (in words) (E. coli DNA gyrase [1]): much lower
hit in HTS pilot screen (inhibition ≥50% cutoff) (E. coli DNA gyrase [1]): hits
IC50 (E. coli DNA gyrase [4]): > 50 µM

CCn1cc(C(=O)O)c(=O)c2cc(F)c(N3CCNCC3)cc21 [norfloxacin]
hit in HTS pilot screen (inhibition ≥50% cutoff) (E. coli DNA gyrase [1]): hits

CCn1cc(C(=O)O)c(=O)c2cc3c(cc21)OCO3 [oxolinic acid]
hit in HTS pilot screen (inhibition ≥50% cutoff) (E. coli DNA gyrase [1]): hits

Nc1ccc(S(N)(=O)=O)cc1 [sulfanilamide]
fluorescence intensity of the DNA samples (in words) (E. coli DNA gyrase [2]): high

Cc1ccc(C(=O)Nc2ccc(S(=O)(=O)O)c3cc(S(=O)(=O)O)cc(S(=O)(=O)O)c23)cc1NC(=O)c1cccc(NC(=O)Nc2cccc(C(=O)Nc3cc(C(=O)Nc4ccc(S(=O)(=O)O)c5cc(S(=O)(=O)O)cc(S(=O)(=O)O)c45)ccc3C)c2)c1 [suramin]
fluorescence intensity compared with negative controls (in words) (E. coli DNA gyrase [1]): significant low fluorescence signals
gyrase-mediated DNA cleavage / gyrase poisoning (in words) (E. coli DNA gyrase [3]): do not possess gyrase poisoning properties
effect on SYBR Green fluorescence intensity (in words) (E. coli DNA gyrase [2]): did not reduce the fluorescence intensity

CN(C)[C@@H]1C(O)=C(C(N)=O)C(=O)[C@@]2(O)C(O)=C3C(=O)c4c(O)cccc4[C@@](C)(O)[C@H]3C[C@@H]12 [tertracycline]
Fluorescent Intensity #1 (E. coli DNA gyrase [1]): 9594
Fluorescent Intensity #2 (E. coli DNA gyrase [1]): 9920
Mean Fluorescent Intensity (E. coli DNA gyrase [1]): 9757

CC[C@@]1(O)C(=O)OCc2c1cc1n(c2=O)Cc2cc3c(CN(C)C)c(O)ccc3nc2-1 [topotecan]
fluorescence intensity compared with negative controls (in words) (E. coli DNA gyrase [1]): significant low fluorescence signals
gyrase-mediated DNA cleavage / gyrase poisoning (in words) (E. coli DNA gyrase [3]): do not possess gyrase poisoning properties
effect on SYBR Green fluorescence intensity (in words) (E. coli DNA gyrase [2]): did not reduce the fluorescence intensity

polymyxin B sulfate salt
Fluorescent Intensity #1 (E. coli DNA gyrase [1]): 6067
Fluorescent Intensity #2 (E. coli DNA gyrase [1]): 10508
Mean Fluorescent Intensity (E. coli DNA gyrase [1]): 8287.5
fluorescence intensity of the DNA samples (in words) (E. coli DNA gyrase [2]): high
